Measurements published in patent US9604935B2, “Deuterated phenyl amino pyrimidine compound and pharmaceutical composition containing the same” (Suzhou Zelgen Biopharmaceuticals Co., Ltd., priority 2013, dated 2017).
Like-named read-outs stand apart in the source and are kept apart here. Each block holds one molecule with its values, some of them ahead of it.

Test: Pharmacokinetic evaluation in rats
Assay type: in vivo
Conditions: male, Sprague-Dawley, rat, plasma, po, 3 mg/kg, 3 mg/kg by gavage
Procedure: 12 male Sprague-Dawley rats, 7-8 weeks old, of approximately 200 g body weight, were divided into three groups, four in each group.
Rats were feed with standard feed, and were given water, and were started to fast 16 hours before the test. The drug was dissolved in PEG400 and dimethylsulfoxide. Orbital blood collection was conducted, and the blood collection time is 0.25 hour, 0.5 hour, 1 hour, 2 hour, 4 hour, 6 hour, 8 hour, 12 hour, 24 hour, 36 hour and 48 hour after administration.
After inhalation of ether, the rats were shortly anesthesiaed; 300 μL of blood were collected from orbit into a test tube. There were 30 μL of 1% heparin saline solutions in the test tube. Before use, test tubes were dried overnight at 60° C. After the blood sample was collected in the subsequent time point, rats were anesthetized with ether and sacrificed.
After blood sampling, the tube was gently inverted at least 5 times immediately to ensure adequate mixing, and was placed on ice. Blood samples were 5000 rpm centrifuged at 4° C. for 5 minutes to separate the plasma and red blood cells. 100 μL of plasma was pipetted into a clean plastic centrifuge tube, and the name of compounds and the time point were indicated. Plasma was stored in −80° C. before use for the analysis. The concentration of the compound of the invention in plasma was determined with LC-MS/MS. The pharmacokinetic parameters were calculated based on the blood drug concentration of each animal at different time points.

[1] = group G3, Mean of 4 rats, read-out: AUCINF_obs
[2] = group G3, rat 9, read-out: AUCINF_obs
[3] = group G3, rat 10, read-out: AUCINF_obs
[4] = group G3, rat 11, read-out: AUCINF_obs
[5] = group G3, rat 12, read-out: AUCINF_obs
[6] = group G2, Mean of 4 rats, read-out: AUCINF_obs
[7] = group G2, rat 5, read-out: AUCINF_obs
[8] = group G2, rat 6, read-out: AUCINF_obs
[9] = group G2, rat 7, read-out: AUCINF_obs
[10] = group G2, rat 8, read-out: AUCINF_obs
[11] = group G1, Mean of 4 rats, read-out: AUCINF_obs
[12] = group G1, rat 1, read-out: AUCINF_obs
[13] = group G1, rat 2, read-out: AUCINF_obs
[14] = group G1, rat 3, read-out: AUCINF_obs
[15] = group G1, rat 4, read-out: AUCINF_obs

Compound: [2H]C1([2H])OC([2H])([2H])C([2H])([2H])N(c2ccc(Nc3nccc(-c4ccc(C(=O)NCC#N)cc4)n3)cc2)C1([2H])[2H] [example 1, N-(cyanomethyl)-4-(2-(4-(d8-morpholino)phenylamino)pyrimidine-4-yl)benzamide]
AUC(0-t) (group G3 (Table 3), mean±SD): 3960 ± 1480 ng·h/mL | Cmax (group G3 (Table 3), mean±SD): 653 ± 275 ng/mL | AUC(0-t) (group G3, Mean of 4 rats): 3960 ng·h/mL | Cmax (group G3, Mean of 4 rats): 653 ng/mL | Tmax (group G3, Mean of 4 rats): 3.5 h | AUC(0-inf) [1]: 4060 ng·h/mL | AUC(0-t) (group G3, rat 9): 6170 ng·h/mL | Cmax (group G3, rat 9): 1060 ng/mL | Tmax (group G3, rat 9): 4 h | AUC(0-inf) [2]: 6300 ng·h/mL | AUC(0-t) (group G3, rat 10): 3250 ng·h/mL | Cmax (group G3, rat 10): 596 ng/mL | Tmax (group G3, rat 10): 4 h | AUC(0-inf) [3]: 3370 ng·h/mL | AUC(0-t) (group G3, rat 11): 3160 ng·h/mL | Cmax (group G3, rat 11): 476 ng/mL | Tmax (group G3, rat 11): 2 h | AUC(0-inf) [4]: 3250 ng·h/mL | AUC(0-t) (group G3, rat 12): 3240 ng·h/mL | Cmax (group G3, rat 12): 483 ng/mL | Tmax (group G3, rat 12): 4 h | AUC(0-inf) [5]: 3320 ng·h/mL

Compound: [2H]C([2H])(C#N)NC(=O)c1ccc(-c2ccnc(Nc3ccc(N4C([2H])([2H])C([2H])([2H])OC([2H])([2H])C4([2H])[2H])cc3)n2)cc1 [example 3, N-(cyano(d2-methyl))-4-(2-(4-(d8-morpholino)phenylamino)pyrimidin-4-yl)benzamide]
AUC(0-t) (group G3 (Table 3), mean±SD): 2720 ± 922 ng·h/mL | Cmax (group G3 (Table 3), mean±SD): 447 ± 170 ng/mL | AUC(0-t) (group G3, Mean of 4 rats): 2720 ng·h/mL | Cmax (group G3, Mean of 4 rats): 447 ng/mL | Tmax (group G3, Mean of 4 rats): 3.5 h | AUC(0-inf) [1]: 2790 ng·h/mL | AUC(0-t) (group G3, rat 9): 4100 ng·h/mL | Cmax (group G3, rat 9): 694 ng/mL | Tmax (group G3, rat 9): 4 h | AUC(0-inf) [2]: 4180 ng·h/mL | AUC(0-t) (group G3, rat 10): 2300 ng·h/mL | Cmax (group G3, rat 10): 419 ng/mL | Tmax (group G3, rat 10): 4 h | AUC(0-inf) [3]: 2350 ng·h/mL | AUC(0-t) (group G3, rat 11): 2190 ng·h/mL | Cmax (group G3, rat 11): 329 ng/mL | Tmax (group G3, rat 11): 2 h | AUC(0-inf) [4]: 2260 ng·h/mL | AUC(0-t) (group G3, rat 12): 2290 ng·h/mL | Cmax (group G3, rat 12): 344 ng/mL | Tmax (group G3, rat 12): 4 h | AUC(0-inf) [5]: 2350 ng·h/mL

Compound: [2H]C1([2H])COCC([2H])([2H])N1c1ccc(Nc2nccc(-c3ccc(C(=O)NCC#N)cc3)n2)cc1 [example 5, N-(cyanomethyl)-4-(2-(4-(2′,2′,6′,6′-d4-morpholino)phenylamino)pyrimidin-4-yl)benzamide]
AUC(0-t) (group G2 (Table 2), mean±SD): 5390 ± 1230 ng·h/mL | Cmax (group G2 (Table 2), mean±SD): 972 ± 307 ng/mL | AUC(0-t) (group G2, Mean of 4 rats): 5390 ng·h/mL | Cmax (group G2, Mean of 4 rats): 972 ng/mL | Tmax (group G2, Mean of 4 rats): 3.5 h | AUC(0-inf) [6]: 5440 ng·h/mL | AUC(0-t) (group G2, rat 5): 6820 ng·h/mL | Cmax (group G2, rat 5): 1410 ng/mL | Tmax (group G2, rat 5): 2 h | AUC(0-inf) [7]: 6850 ng·h/mL | AUC(0-t) (group G2, rat 6): 5460 ng·h/mL | Cmax (group G2, rat 6): 922 ng/mL | Tmax (group G2, rat 6): 4 h | AUC(0-inf) [8]: 5490 ng·h/mL | AUC(0-t) (group G2, rat 7): 5470 ng·h/mL | Cmax (group G2, rat 7): 875 ng/mL | Tmax (group G2, rat 7): 4 h | AUC(0-inf) [9]: 5520 ng·h/mL | AUC(0-t) (group G2, rat 8): 3810 ng·h/mL | Cmax (group G2, rat 8): 686 ng/mL | Tmax (group G2, rat 8): 4 h | AUC(0-inf) [10]: 3900 ng·h/mL

Compound: [2H]C([2H])(C#N)NC(=O)c1ccc(-c2ccnc(Nc3ccc(N4CC([2H])([2H])OC([2H])([2H])C4)cc3)n2)cc1 [example 6]
AUC(0-t) (group G1 (Table 1), mean±SD): 1900 ± 1100 ng·h/mL | Cmax (group G1 (Table 1), mean±SD): 282 ± 158 ng/mL | AUC(0-t) (group G1, Mean of 4 rats): 1900 ng·h/mL | Cmax (group G1, Mean of 4 rats): 282 ng/mL | Tmax (group G1, Mean of 4 rats): 2.56 h | AUC(0-inf) [11]: 1940 ng·h/mL | AUC(0-t) (group G1, rat 1): 2730 ng·h/mL | Cmax (group G1, rat 1): 423 ng/mL | Tmax (group G1, rat 1): 0.25 h | AUC(0-inf) [12]: 2740 ng·h/mL | AUC(0-t) (group G1, rat 2): 514 ng·h/mL | Cmax (group G1, rat 2): 94.6 ng/mL | Tmax (group G1, rat 2): 4 h | AUC(0-inf) [13]: 561 ng·h/mL | AUC(0-t) (group G1, rat 3): 2840 ng·h/mL | Cmax (group G1, rat 3): 403 ng/mL | Tmax (group G1, rat 3): 4 h | AUC(0-inf) [14]: 2920 ng·h/mL | AUC(0-t) (group G1, rat 4): 1520 ng·h/mL | Cmax (group G1, rat 4): 207 ng/mL | Tmax (group G1, rat 4): 2 h | AUC(0-inf) [15]: 1530 ng·h/mL

Results, then the molecule that gave them:

AUC(0-t) (group G1 (Table 1), mean±SD): 2090 ± 1220 ng·h/mL | Cmax (group G1 (Table 1), mean±SD): 309 ± 175 ng/mL | AUC(0-t) (group G1, Mean of 4 rats): 2090 ng·h/mL | Cmax (group G1, Mean of 4 rats): 309 ng/mL | Tmax (group G1, Mean of 4 rats): 2.56 h | AUC(0-inf) [11]: 2120 ng·h/mL | AUC(0-t) (group G1, rat 1): 3090 ng·h/mL | Cmax (group G1, rat 1): 469 ng/mL | Tmax (group G1, rat 1): 0.25 h | AUC(0-inf) [12]: 3100 ng·h/mL | AUC(0-t) (group G1, rat 2): 574 ng·h/mL | Cmax (group G1, rat 2): 101 ng/mL | Tmax (group G1, rat 2): 4 h | AUC(0-inf) [13]: 616 ng·h/mL | AUC(0-t) (group G1, rat 3): 3050 ng·h/mL | Cmax (group G1, rat 3): 438 ng/mL | Tmax (group G1, rat 3): 4 h | AUC(0-inf) [14]: 3130 ng·h/mL | AUC(0-t) (group G1, rat 4): 1630 ng·h/mL | Cmax (group G1, rat 4): 227 ng/mL | Tmax (group G1, rat 4): 2 h | AUC(0-inf) [15]: 1640 ng·h/mL
Compound: [2H]C([2H])(C#N)NC(=O)c1ccc(-c2ccnc(Nc3ccc(N4CCOCC4)cc3)n2)cc1 [example 8, N-(cyano(d2-methyl))-4-(2-(4-morpholinophenylamino)pyrimidin-4-yl)benzamide]

AUC(0-t) (group G1 (Table 1), mean±SD): 1620 ± 932 ng·h/mL | Cmax (group G1 (Table 1), mean±SD): 245 ± 140 ng/mL | AUC(0-t) (group G1, Mean of 4 rats): 1620 ng·h/mL | Cmax (group G1, Mean of 4 rats): 245 ng/mL | Tmax (group G1, Mean of 4 rats): 2.56 h | AUC(0-inf) [11]: 1650 ng·h/mL | AUC(0-t) (group G1, rat 1): 2290 ng·h/mL | Cmax (group G1, rat 1): 368 ng/mL | Tmax (group G1, rat 1): 0.25 h | AUC(0-inf) [12]: 2300 ng·h/mL | AUC(0-t) (group G1, rat 2): 443 ng·h/mL | Cmax (group G1, rat 2): 79.4 ng/mL | Tmax (group G1, rat 2): 4 h | AUC(0-inf) [13]: 480 ng·h/mL | AUC(0-t) (group G1, rat 3): 2440 ng·h/mL | Cmax (group G1, rat 3): 354 ng/mL | Tmax (group G1, rat 3): 4 h | AUC(0-inf) [14]: 2510 ng·h/mL | AUC(0-t) (group G1, rat 4): 1320 ng·h/mL | Cmax (group G1, rat 4): 180 ng/mL | Tmax (group G1, rat 4): 2 h | AUC(0-inf) [15]: 1330 ng·h/mL | AUC(0-t) (group G2 (Table 2), mean±SD): 3210 ± 744 ng·h/mL | Cmax (group G2 (Table 2), mean±SD): 589 ± 190 ng/mL | AUC(0-t) (group G2, Mean of 4 rats): 3210 ng·h/mL | Cmax (group G2, Mean of 4 rats): 589 ng/mL | Tmax (group G2, Mean of 4 rats): 3.5 h | AUC(0-inf) [6]: 3240 ng·h/mL | AUC(0-t) (group G2, rat 5): 4080 ng·h/mL | Cmax (group G2, rat 5): 858 ng/mL | Tmax (group G2, rat 5): 2 h | AUC(0-inf) [7]: 4110 ng·h/mL | AUC(0-t) (group G2, rat 6): 3320 ng·h/mL | Cmax (group G2, rat 6): 567 ng/mL | Tmax (group G2, rat 6): 4 h | AUC(0-inf) [8]: 3340 ng·h/mL | AUC(0-t) (group G2, rat 7): 3180 ng·h/mL | Cmax (group G2, rat 7): 514 ng/mL | Tmax (group G2, rat 7): 4 h | AUC(0-inf) [9]: 3210 ng·h/mL | AUC(0-t) (group G2, rat 8): 2270 ng·h/mL | Cmax (group G2, rat 8): 415 ng/mL | Tmax (group G2, rat 8): 4 h | AUC(0-inf) [10]: 2300 ng·h/mL | AUC(0-t) (group G3 (Table 3), mean±SD): 2190 ± 814 ng·h/mL | Cmax (group G3 (Table 3), mean±SD): 365 ± 146 ng/mL | AUC(0-t) (group G3, Mean of 4 rats): 2190 ng·h/mL | Cmax (group G3, Mean of 4 rats): 365 ng/mL | Tmax (group G3, Mean of 4 rats): 3.5 h | AUC(0-inf) [1]: 2240 ng·h/mL | AUC(0-t) (group G3, rat 9): 3420 ng·h/mL | Cmax (group G3, rat 9): 579 ng/mL | Tmax (group G3, rat 9): 4 h | AUC(0-inf) [2]: 3480 ng·h/mL | AUC(0-t) (group G3, rat 10): 1800 ng·h/mL | Cmax (group G3, rat 10): 336 ng/mL | Tmax (group G3, rat 10): 4 h | AUC(0-inf) [3]: 1850 ng·h/mL | AUC(0-t) (group G3, rat 11): 1750 ng·h/mL | Cmax (group G3, rat 11): 276 ng/mL | Tmax (group G3, rat 11): 2 h | AUC(0-inf) [4]: 1800 ng·h/mL | AUC(0-t) (group G3, rat 12): 1810 ng·h/mL | Cmax (group G3, rat 12): 270 ng/mL | Tmax (group G3, rat 12): 4 h | AUC(0-inf) [5]: 1840 ng·h/mL
Compound: N#CCNC(=O)c1ccc(-c2ccnc(Nc3ccc(N4CCOCC4)cc3)n2)cc1 [example 9, N-(cyanomethyl)-4-(2-(4-morpholinophenylamino)pyrimidin-4-yl)benzamide, reference compound]
